Results reported in patent publication US10358434B2, “2-(3-pyridinyl)-1H-benzimidazole derivative compound and medicament containing same” (NIHON MEDI-PHYSICS CO., LTD., priority 2014, dated 2019).

What was measured:
[1] = tested on: human adrenal gland section expressing aldosterone-producing adenoma; experiment: In vitro autoradiography using human adrenal adenoma; type: binding; conditions: section of FIG. 17(b)
Outline: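 Autoradiography readout: PSL in equal-sized ROIs over adenoma (B2) and normal adrenal cortex (B1), expressed as B2/B1 and decay-corrected using half-life, applied activity and plate contact time. Tissue was surgically excised human adrenal, frozen and cut at 7 μm, incubated 10 min with 5-33 kBq/mL tracer in BSA-containing PBS, then imaged after 16-20 h exposure.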

[2] = In vivo kinetics experiment (radioactivity distribution); set-up: species or system Wistar male rat; conditions: rat i.v., mean ± SD
Outline: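 Tissue radioactivity (% ID/g) and adrenal-to-blood, liver, kidney, small intestine, muscle and fat ratios determined at 10, 30 and 60 min post-dose. Tracers (approximately 1 to 3.7 MBq, saline with 1 w/v % ascorbic acid) injected i.v. into caudal vein of anesthetized 9-week male Wistar rats; organs excised, weighed, counted.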

[3] = Plasma stability evaluation (TLC analysis); type: in vitro ADME; conditions: 37° C., 60 minutes, TLC analysis
Outline: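 TLC analysis, using each compound's synthesis conditions, judged stability after methanol was added and samples were centrifuged to remove protein. Beforehand, each tracer had spent 60 minutes at 37° C in pooled heparinized normal human plasma.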

Structure (SMILES): FCCn1c(-c2cncc(Cn3cncc3[123I])c2)nc2cc(F)c(Cl)cc21 [[^123I] 610, 6-Chloro-5-fluoro-1-(2-fluoroethyl)-2-{5-(5-[^123I]iodo-1H-imidazol-1-ylmethyl)pyridin-3-yl}benzimidazole]
- B2/B1 accumulation ratio [1]: 0.95
- B2 (PSL value, aldosterone-producing adenoma) ([1]; site 71b): 2786
- B1 (PSL value, normal adrenal cortex) ([1]; site 72b): 2931
- Adrenal gland/blood ratio of radioactivity accumulation ([2]; 10 min after administration): 27.61 ± 6.22
- Adrenal gland/fat ratio of radioactivity accumulation ([2]; 10 min after administration): 100.35 ± 29.67
- Adrenal gland/kidney ratio of radioactivity accumulation ([2]; 10 min after administration): 14.48 ± 2.49
- Adrenal gland/liver ratio of radioactivity accumulation ([2]; 10 min after administration): 3.68 ± 0.80
- Adrenal gland/muscle ratio of radioactivity accumulation ([2]; 10 min after administration): 62.69 ± 29.38
- Adrenal gland/small intestine ratio of radioactivity accumulation ([2]; 10 min after administration): 18.10 ± 4.67
- Radioactivity distribution Adrenal gland ([2]; 10 min after administration): 12.62 ± 2.99 % ID/g
- Radioactivity distribution Bladder (including urine) ([2]; 10 min after administration): 0.22 ± 0.08 % ID/g
- Radioactivity distribution Blood ([2]; 10 min after administration): 0.46 ± 0.03 % ID/g
- Radioactivity distribution Fat ([2]; 10 min after administration): 0.13 ± 0.02 % ID/g
- Radioactivity distribution Femur ([2]; 10 min after administration): 3.25 ± 0.85 % ID/g
- Radioactivity distribution Heart ([2]; 10 min after administration): 0.33 ± 0.02 % ID/g
- Radioactivity distribution Kidney ([2]; 10 min after administration): 0.86 ± 0.06 % ID/g
- Radioactivity distribution Large intestine ([2]; 10 min after administration): 0.13 ± 0.02 % ID/g
- Radioactivity distribution Liver ([2]; 10 min after administration): 3.43 ± 0.26 % ID/g
- Radioactivity distribution Lung ([2]; 10 min after administration): 0.49 ± 0.03 % ID/g
- Radioactivity distribution Muscle (lower limbs) ([2]; 10 min after administration): 0.21 ± 0.05 % ID/g
- Radioactivity distribution Remaining whole body ([2]; 10 min after administration): 0.30 ± 0.04 % ID/g
- Radioactivity distribution Small intestine ([2]; 10 min after administration): 0.71 ± 0.10 % ID/g
- Radioactivity distribution Spleen ([2]; 10 min after administration): 1.43 ± 0.11 % ID/g
- Radioactivity distribution Stomach ([2]; 10 min after administration): 0.66 ± 0.21 % ID/g
- Radioactivity distribution Testis ([2]; 10 min after administration): 0.13 ± 0.02 % ID/g
- Radioactivity distribution Whole brain ([2]; 10 min after administration): 0.04 ± 0.00 % ID/g
- Adrenal gland/blood ratio of radioactivity accumulation ([2]; 30 min after administration): 23.78 ± 2.07
- Adrenal gland/fat ratio of radioactivity accumulation ([2]; 30 min after administration): 88.69 ± 3.10
- Adrenal gland/kidney ratio of radioactivity accumulation ([2]; 30 min after administration): 28.65 ± 3.77
- Adrenal gland/liver ratio of radioactivity accumulation ([2]; 30 min after administration): 6.43 ± 0.94
- Adrenal gland/muscle ratio of radioactivity accumulation ([2]; 30 min after administration): 94.79 ± 8.71
- Adrenal gland/small intestine ratio of radioactivity accumulation ([2]; 30 min after administration): 16.12 ± 2.61
- Radioactivity distribution Adrenal gland ([2]; 30 min after administration): 15.71 ± 1.59 % ID/g
- Radioactivity distribution Bladder (including urine) ([2]; 30 min after administration): 0.28 ± 0.08 % ID/g
- Radioactivity distribution Blood ([2]; 30 min after administration): 0.66 ± 0.04 % ID/g
- Radioactivity distribution Fat ([2]; 30 min after administration): 0.18 ± 0.01 % ID/g
- Radioactivity distribution Femur ([2]; 30 min after administration): 19.34 ± 6.00 % ID/g
- Radioactivity distribution Heart ([2]; 30 min after administration): 0.31 ± 0.02 % ID/g
- Radioactivity distribution Kidney ([2]; 30 min after administration): 0.55 ± 0.02 % ID/g
- Radioactivity distribution Large intestine ([2]; 30 min after administration): 0.16 ± 0.03 % ID/g
- Radioactivity distribution Liver ([2]; 30 min after administration): 2.46 ± 0.18 % ID/g
- Radioactivity distribution Lung ([2]; 30 min after administration): 0.53 ± 0.02 % ID/g
- Radioactivity distribution Muscle (lower limbs) ([2]; 30 min after administration): 0.17 ± 0.02 % ID/g
- Radioactivity distribution Remaining whole body ([2]; 30 min after administration): 0.31 ± 0.02 % ID/g
- Radioactivity distribution Small intestine ([2]; 30 min after administration): 0.98 ± 0.06 % ID/g
- Radioactivity distribution Spleen ([2]; 30 min after administration): 1.00 ± 0.04 % ID/g
- Radioactivity distribution Stomach ([2]; 30 min after administration): 1.27 ± 0.33 % ID/g
- Radioactivity distribution Testis ([2]; 30 min after administration): 0.25 ± 0.02 % ID/g
- Radioactivity distribution Whole brain ([2]; 30 min after administration): 0.04 ± 0.00 % ID/g
- Adrenal gland/blood ratio of radioactivity accumulation ([2]; 60 min after administration): 27.80 ± 8.18
- Adrenal gland/fat ratio of radioactivity accumulation ([2]; 60 min after administration): 120.42 ± 43.06
- Adrenal gland/kidney ratio of radioactivity accumulation ([2]; 60 min after administration): 40.68 ± 13.23
- Adrenal gland/liver ratio of radioactivity accumulation ([2]; 60 min after administration): 20.57 ± 8.91
- Adrenal gland/muscle ratio of radioactivity accumulation ([2]; 60 min after administration): 147.93 ± 55.03
- Adrenal gland/small intestine ratio of radioactivity accumulation ([2]; 60 min after administration): 15.84 ± 3.51
- Radioactivity distribution Adrenal gland ([2]; 60 min after administration): 19.09 ± 6.65 % ID/g
- Radioactivity distribution Bladder (including urine) ([2]; 60 min after administration): 0.29 ± 0.08 % ID/g
- Radioactivity distribution Blood ([2]; 60 min after administration): 0.68 ± 0.05 % ID/g
- Radioactivity distribution Fat ([2]; 60 min after administration): 0.16 ± 0.03 % ID/g
- Radioactivity distribution Femur ([2]; 60 min after administration): 44.38 ± 12.58 % ID/g
- Radioactivity distribution Heart ([2]; 60 min after administration): 0.28 ± 0.04 % ID/g
- Radioactivity distribution Kidney ([2]; 60 min after administration): 0.47 ± 0.02 % ID/g
- Radioactivity distribution Large intestine ([2]; 60 min after administration): 0.19 ± 0.02 % ID/g
- Radioactivity distribution Liver ([2]; 60 min after administration): 0.95 ± 0.10 % ID/g
- Radioactivity distribution Lung ([2]; 60 min after administration): 0.50 ± 0.03 % ID/g
- Radioactivity distribution Muscle (lower limbs) ([2]; 60 min after administration): 0.13 ± 0.01 % ID/g
- Radioactivity distribution Remaining whole body ([2]; 60 min after administration): 0.31 ± 0.02 % ID/g
- Radioactivity distribution Small intestine ([2]; 60 min after administration): 1.18 ± 0.18 % ID/g
- Radioactivity distribution Spleen ([2]; 60 min after administration): 0.78 ± 0.25 % ID/g
- Radioactivity distribution Stomach ([2]; 60 min after administration): 2.97 ± 0.54 % ID/g
- Radioactivity distribution Testis ([2]; 60 min after administration): 0.32 ± 0.05 % ID/g
- Radioactivity distribution Whole brain ([2]; 60 min after administration): 0.03 ± 0.00 % ID/g
- Radiochemical purity after incubation in human plasma [3]: 92%
